Experimental data taken from ChEMBL document CHEMBL1153196, “Development of an in silico model for human skin permeation based on a Franz cell skin permeability assay” (Bioorg Med Chem Lett, 2010).

Columns and labels:
[1] = Lipophilicity, log D of the compound; assay type: physicochemical; conditions: octanol/water
Zone of skin = experiment: Permeability in human skin after 48 hrs by Franz cell permeability assay

In the case of C[C@H](c1ccccc1)N(C)c1cc(C(F)(F)F)c(C#N)cn1, the logD [1] is reported as 5.59.

Molecule N#Cc1ccc(-c2ccccc2O)cc1C(F)(F)F has a logD [1] of 3.63.

With Cc1nn(-c2ccccc2)c(C)c1/C=N/N1CCN(Cc2ccccc2)CC1 the logD [1] was 3.65.

With Oc1cccc2ncccc12 the logD [1] was 1.46.

CC(=O)Nc1cnc(-c2ccccc2)o1 showed a logD [1] of 1.22.

For Cc1cc(=O)n(-c2ccccc2)n1C [ANTIPYRINE], the logD [1] was 0.27.

In the case of NC(=O)N1c2ccccc2C=Cc2ccccc21 [CARBAMAZEPINE], the “log Pe” value (Zone of skin) is reported as 0.18 and the logD [1] is reported as 2.67.

With NS(=O)(=O)c1cc2c(cc1Cl)N=CNS2(=O)=O [CHLOROTHIAZIDE] the logD [1] was -0.78.

CN(C)CCCN1c2ccccc2Sc2ccc(Cl)cc21 [CHLORPROMAZINE] showed a logD [1] of 2.15.

In the case of Cl.Clc1cccc(Cl)c1NC1=NCCN1 [CLONIDINE HYDROCHLORIDE], the “log Pe” value (Zone of skin) is reported as -0.68 and the logD [1] is reported as 0.37.

With C[C@]12C[C@H](O)[C@H]3[C@@H](CCC4=CC(=O)CC[C@@]43C)[C@@H]1CC[C@@H]2C(=O)CO [CORTICOSTERONE] the logD [1] was 1.76.

In the case of C[C@@H]1C[C@H]2[C@@H]3CCC4=CC(=O)C=C[C@]4(C)[C@@]3(F)[C@@H](O)C[C@]2(C)[C@H]1C(=O)CO [DESOXIMETASONE], the logD [1] is reported as 2.

With C[C@@H]1C[C@H]2[C@@H]3CCC4=CC(=O)C=C[C@]4(C)[C@@]3(F)[C@@H](O)C[C@]2(C)[C@@]1(O)C(=O)CO [DEXAMETHASONE] the logD [1] was 1.87.

For CCOC(=O)[C@H](CCc1ccccc1)N[C@@H](C)C(=O)N1CCC[C@H]1C(=O)O.O=C(O)/C=C\C(=O)O [ENALAPRIL MALEATE], the “log Pe” value (Zone of skin) was -1.72 and the logD [1] was -0.55.

For CCCn1c(=O)[nH]c(=O)c2[nH]cnc21 [ENPROFYLLINE], the logD [1] was 0.27.

In the case of NS(=O)(=O)c1cc2c(cc1Cl)NCNS2(=O)=O [HYDROCHLOROTHIAZIDE], the “log Pe” value (Zone of skin) is reported as -2.

C[C@]12CCC(=O)C=C1CC[C@@H]1[C@@H]2[C@@H](O)C[C@@]2(C)[C@H]1CC[C@]2(O)C(=O)CO [HYDROCORTISONE] gave a logD [1] of 1.43.

Work on COc1ccc2c(c1)c(CC(=O)O)c(C)n2C(=O)c1ccc(Cl)cc1 [INDOMETHACIN] yielded a logD [1] of 0.59.

Work on CC(C)Cn1c(=O)n(C)c(=O)c2[nH]cnc21 [ISOBUTYLMETHYLXANTHINE] yielded a logD [1] of 2.

Work on CC(C(=O)O)c1cccc(C(=O)c2ccccc2)c1 (centres undefined) [KETOPROFEN] yielded a logD [1] of 0.56.

Molecule COCCc1ccc(OCC(O)CNC(C)C)cc1 (centres undefined) [METOPROLOL] has a logD [1] of -0.81.

Work on Clc1ccc(COC(Cn2ccnc2)c2ccc(Cl)cc2Cl)c(Cl)c1 (centres undefined) [MICONAZOLE] yielded a logD [1] of 5.55.

In the case of Nc1cc(N2CCCCC2)nc(N)[n+]1[O-] [MINOXIDIL], the logD [1] is reported as -3.99.

Molecule O=C(O)c1cccnc1Nc1cccc(C(F)(F)F)c1 [NIFLUMIC ACID] has a logD [1] of 2.01.

COc1ccc2[nH]c([S+]([O-])Cc3ncc(C)c(OC)c3C)nc2c1 (centres undefined) [OMEPRAZOLE] showed a logD [1] of 2.16.

Molecule CN1C(C(=O)Nc2ccccn2)=C(O)c2ccccc2S1(=O)=O [PIROXICAM] has a logD [1] of -0.35.

With CC(=O)[C@H]1CC[C@H]2[C@@H]3CCC4=CC(=O)CC[C@]4(C)[C@H]3CC[C@]12C [PROGESTERONE] the “log Pe” value (Zone of skin) was 1.08.

With CC1(C)C(=O)N(c2ccc(C#N)c(C(F)(F)F)c2)C(=O)N1CCCCO [RU-58841] the logD [1] was 2.41.

Work on Nc1ccc(S(=O)(=O)Nc2ccccn2)cc1 [SULFAPYRIDINE] yielded a logD [1] of 0.03.

For O=C(O)c1cc(/N=N/c2ccc(S(=O)(=O)Nc3ccccn3)cc2)ccc1O [SULFASALAZINE], the “log Pe” value (Zone of skin) was -1.31 and the logD [1] was 0.05.

For CCN1CCCC1CNC(=O)c1cc(S(N)(=O)=O)ccc1OC (centres undefined) [SULPIRIDE], the “log Pe” value (Zone of skin) was -1.48.

Work on CC(C)(C)NCC(O)c1cc(O)cc(O)c1 (centres undefined) [TERBUTALINE] yielded a logD [1] of -2.14.

In the case of CC(C)(C)c1ccc(C(O)CCCN2CCC(C(O)(c3ccccc3)c3ccccc3)CC2)cc1 (centres undefined) [TERFENADINE], the logD [1] is reported as 3.72.

For C[C@]12CC[C@H]3[C@@H](CCC4=CC(=O)CC[C@@]43C)[C@@H]1CC[C@@H]2O [TESTOSTERONE], the logD [1] was 3.48.

CC(=O)CC(c1ccccc1)c1c(O)c2ccccc2oc1=O (centres undefined) [WARFARIN] showed a logD [1] of 1.43.
